In brackets after ≈: the same amount, converted by molar mass. Read-outs that look alike come from different tables or passages of the source.
Assays:
[1] = system: HT-29 (human colon adenocarcinoma); assay: Seven-day in vitro cytotoxicity, HT-29; assay type: cell-based; conditions: for IC50: HT-29, 168 h
Description: (§1) The brine shrimp (Artemia salina Leach) test (BST) was performed as modified to determine LC50 values in μg/ml. Seven-day in vitro cytotoxicity tests against human tumor cell lines were carried out at the Purdue Cancer Center, using standard protocols for A-549 (human lung carcinoma), MCF-7 (human breast carcinoma) and HT-29 (human colon carcinoma) with adriamycin as a positive control. The reported ED50 values in μg/ml (Table 5) were tabulated from the same run in order to facilitate comparison for the SAR's.
(§2) Bioassays. The brine shrimp (Artemia salina Leach) test (BST) was performed as modified. Zhao et al., Phytochemistry, 33, p. 1065 (1993). Seven-day in vitro cytotoxicity tests against human tumor cell lines were carried out at the Purdue Cancer Center, using standard protocols for A-549 (human lung carcinoma), Gu, Z. M.; Fang, X.-P.; Miesbauer, L. R., Smith, D. L.; and McLaughlin, J. L., 30, 31, and 32-Hydroxybullatacinones: Bioactive Terminally-Hydroxylated Annonaceous Acetogenins from Annona bullata., J. Nat. Prod., 1993, 56, 870-876; MCF-7 (human breast carcinoma) McLaughlin, J. L., Chang, C.-J., and Smith, D. L., Simple Bench-Top Bioassays (Brine Shrimp and Potato Discs) for the Discoveries of Plant Antitumor Compounds: A Review of Recent Progress. In Kinghorn, A. D., Balandrin, J. (Eds): "Human Medicinal Agents from Plants", ACS Symposium Series, Washington, D.C., American Chemical Society, 1993, pp. 112-137; and HT-29 (human colon carcinoma), Mclaughlin, J.L., Chang, C.-J., Smith, D.L., "'Bench-Top' Bioassays for the Discovery of Bioactive Natural Products: An Update", in Rahman, Atta-ur- (Ed): "Studies in Natural Product Chemistry", Vol. 9, Amsterdam, Elsevier, 1991, pp. 383-409, with adriamycin as a positive control. The reported values (Table IV) were tabulated from the same run in order to facilitate comparison for the SAR's.
(§3) Bioassay. The extracts, fractions, and isolates were routinely evaluated for lethality to brine shrimp larvae (BST). Cytotoxicities against human solid tumor cells were measured at the Purdue Cell Culture Laboratory, Purdue Cancer Center, for the A-549 lung carcinoma, MCF-7 breast carcinoma, and HT-29 colon adenocarcinoma.
(§4) The brine shrimp lethality test (BST), on newly hatched naupleii, was performed in our laboratory as previously described. McLaughlin, Methods in Plant Biochemistry, Vol. 6, Hostettmann, Academic Press, London, pp. 1-33 (1991). Seven day cytotoxicities against human solid tumor cells were measured at the Cell Culture Laboratory, Purdue Cancer Center, for the A-549 lung carcinoma, MCF-7 breast carcinoma, and HT-29 colon adenocarcinoma. The respiratory functions of rat liver mitochondria (RMB) were measured polarographically by determination of their rates of oxygen consumption after the addition of acetogenins or their derivatives.

[2] = system: brine shrimp (Artemia salina Leach); assay: Brine shrimp lethality test (BST); assay type: in vivo; conditions: Artemia salina, read-out: BST LC50
Description: as §1, §2, §3, §4

[3] = system: HT-29 (human colon adenocarcinoma); assay: Seven-day in vitro cytotoxicity, HT-29; assay type: cell-based; conditions: HT-29, 168 h, read-out: HT-29 LC50, Table 5, same run
[4] = system: MCF-7 (human breast carcinoma); assay: Seven-day in vitro cytotoxicity, MCF-7; assay type: cell-based; conditions: for IC50: MCF7, 168 h
Description: as §1, §2, §3, §4

[5] = system: A-549 (human lung carcinoma); assay: Seven-day in vitro cytotoxicity, A-549; assay type: cell-based; conditions: for IC50: A549, 168 h
Description: as §1, §2, §3, §4

[6] = system: A2780 human ovarian cancer xenografts; conditions: 50 μg/kg; athymic mice bearing A2780 human ovarian cancer xenografts; cited from earlier work
[7] = system: rat liver mitochondria; assay: Rat mitochondrial bioassay (RMB), inhibition of oxygen uptake; assay type: biochemical; conditions: for mitochondrial inhibition: rat liver mitochondria, result in words; for RMB IC50: Table 17, oxygen consumption of rat liver mitochondria, parent and acetal derivative in the same run
Description: as §4
The oxidative phosphorylation pathway (or electron transport chain) is responsible for oxidizing NADH to NAD^+ and producing ATP from ADP and phosphate within the mitochondria. There are five enzyme complexes in this pathway: NADH-ubiquinone reductase (complex I), succinate-ubiquinone reductase (complex II), ubiquinone-cytochrome c reductase (complex III), cytochrome c oxidase (complex IV) and the F0 F1 -ATPase complex (complex V). The end point of the oxidative phosphorylation pathway is the reduction of oxygen (O2) to water in the mitochondria (thus, it is also called respiration), coupled with the synthesis of ATP by complex V. State 4 respiration is the oxidation of substrates in the absence of a phosphate acceptor (e.g., ADP). State 3 respiration occurs when a phosphate acceptor is present and oxygen utilization increases. The ratio of State 3 respiration to State 4 respiration is the respiratory control ratio (RCR).
The process of respiration can be measured by using an oxygen electrode to detect the amount of oxygen present in the assay cell. If respiration is occurring normally, the concentration of oxygen should slowly decrease as it is reduced to water. However, if there is some type of inhibition of oxidative phosphorylation occurring, the oxygen level will no longer decrease at the same rate. This rate of oxygen usage can be visualized by a chart recorder connected to the oxygen electrode. At normal respiration,a decreasing baseline slope will be established. During inhibition, however, the baseline slope should decrease (i.e., the slope will move closer to zero), since the oxygen present is no longer being reduced. In other words, the oxygen concentration in the assay cell is no longer decreasing at the same rate as in normal respiration. Furthermore, inhibition sites at specific complexes can be determined by competitive inhibition studies. This is accomplished by addition of a known inhibitor of, e.g., complex I, followed by the new respiration-inhibiting compound. […] This can be verified by trying inhibitors at other sites and by reversing the order, i.e., adding the new compound and then the known inhibitor.
The method for isolating rat liver mitochondria essentially followed the published methodology. Ahammadsahib et al., Life Sciences, 53, pgs. 1113-1120 (1993). The isolation buffer used for the isolation of mitochondria from rat liver consisted of 4 mM Tris-HC1, 0.5 mM EDTA, and 250 mM sucrose at a pH of 7.4. The isolation buffer was kept at refrigeration temperature at all times by storing on ice during the whole procedure. The rats were supplied by Sprague-Dawley, were male, and weighed approximately 300-320 grams. They were sacrificed with carbon dioxide, and the livers were removed and immediately placed in the isolation buffer on ice. The livers were then rinsed with several washings of cold buffer, cut into pieces, and homogenized. The homogenates were then centrifuged (Sorvall Superspeed RC2-B, 4° C) for 10 minutes at approximately 2000 rpms; the supernatant was next centrifuged for 20 minutes at approximately 9000 rpms. The pellet was reserved and resuspended in 2 ml of assay buffer with a glass pipet. The assay buffer consisted of 100 mM KC1, 5 mM KH2 PO4, 1 mM EDTA, 5 mM glutamate, 1 mM malate, and 20 mM Tris-HCl at a pH of 7.4 and was stored at room temperature. […]

[8] = read-out: HT-29 ED50, Table 17, seven day cytotoxicity, same run
[9] = read-out: MCF-7 ED50, Table 17, seven day cytotoxicity, same run
[10] = read-out: MCF-7 LC50, Table 5, seven-day cytotoxicity, same run
[11] = Table 17, seven day cytotoxicity, same run, read-out: HT-29 ED50
[12] = Table 17, seven day cytotoxicity, same run, read-out: MCF-7 ED50
[13] = Table 17, seven day cytotoxicity, same run, read-out: A-549 ED50

Structure (SMILES)	LC50 ([2]; Table 17, same run)	IC50 [4, 9]	IC50 ([5]; read-out: A-549 ED50)	IC50 [1, 11]	IC50 [4, 12]	RMB IC50 [7]	IC50 [5, 13]	also measured
COc1cccc2c1C(=O)c1c(O)c3c(c(O)c1C2=O)C[C@@](O)(C(=O)CO)C[C@@H]3O[C@H]1C[C@H](N)[C@H](O)[C@H](C)O1 [Adriamycin, adriamycin, reference compound]	80 ng/mL (≈ 147 nM)	401 ng/mL (≈ 738 nM)	4.19 ng/mL (≈ 7.71 nM)					IC50 [1, 8]: 35.5 ng/mL (≈ 65.3 nM); IC50 ([1]; read-out: HT-29 LC50, Table 12, same run): 39.2 ng/mL (≈ 72.1 nM); EC50 ([1]; HT-29, read-out: HT-29): 37.2 ng/mL (≈ 68.4 nM); LC50 ([2]; Table 5, brine shrimp larvae): 257 ng/mL (≈ 473 nM); LC50 ([2]; Table 12): 80 ng/mL (≈ 147 nM); IC50 [3]: 0.153 ng/mL (≈ 0.281 nM); IC50 [4, 10]: 17.6 ng/mL (≈ 32.4 nM); IC50 ([4]; read-out: MCF-7 LC50, Table 12, same run): 231 ng/mL (≈ 425 nM); EC50 ([4]; MCF7, read-out: MCF-7): 519 ng/mL (≈ 955 nM); IC50 ([5]; read-out: A-549 LC50): 0.104 ng/mL (≈ 0.191 nM); EC50 ([5]; A549, read-out: A-549): 8.5 ng/mL (≈ 15.6 nM)
CCCCCCCCCC[C@H](O)[C@H]1CC[C@H]([C@H]2CC[C@H]([C@H](O)CCCCCCCCCC[C@@H](O)CC3=C[C@H](C)OC3=O)O2)O1 [Bullatacin, reference compound]								tumor growth inhibition (TGI) [6]: 67%; mitochondrial inhibition [7]: high activity
CCCCCCCCCCC(O)C1CCC(C2CCC(C(O)CCCCC(O)CCCCCCCC3=CC(C)OC3=O)O2)O1 (stereo not drawn) [Compound 1, Bullatin]								LC50 ([2]; Table 5, brine shrimp larvae): 4 ng/mL (≈ 6.42 nM); IC50 [3]: 0.00378 ng/mL (≈ 0.00607 nM); IC50 [4, 10]: 0.00833 ng/mL (≈ 0.0134 nM); mitochondrial inhibition [7]: high activity; IC50 ([5]; read-out: A-549 LC50): 0.00939 ng/mL (≈ 0.0151 nM)
CCCCCCCCCCCCCC[C@@H](O)[C@H]1CC[C@H]([C@H]2CC[C@@H](CCCCC[C@@H](O)CC3=C[C@H](C)OC3=O)OCO2)O1 [Compound 9, 10,13-Formaldehyde acetal derivative of goniothalamicin]	53.8 ng/mL (≈ 88.4 nM)			0.0219 ng/mL (≈ 0.036 nM)	0.409 ng/mL (≈ 0.672 nM)	203.1 n moles/Lt/mg protein	1050 ng/mL (≈ 1720 nM)	
CCCCCCCCCCCCCC[C@H]1OCO[C@@H]1CC[C@H](O)[C@@H]1CC[C@@H](CCCCC[C@@H](O)CC2=C[C@H](C)OC2=O)O1 [Compound 12, 17,18-formaldehyde acetal derivative]	7.5 ng/mL (≈ 12.3 nM)				268 ng/mL (≈ 440 nM)	290.3 n moles/Lt/mg protein	69.5 ng/mL (≈ 114 nM)	
CCCCCC[C@H]1CCC[C@@H]([C@H]2CC[C@H]([C@H]3CC[C@@H]([C@@H]4CC[C@@H](CCCCCCCCCC5=C[C@H](C)OC5=O)O4)OCO3)O2)OCO1 [Compound 14, 16,19- and 24,28-bis-formaldehyde acetal derivative]	10200 ng/mL (≈ 15400 nM)			0.000289 ng/mL (≈ 0.000436 nM)	1 ng/mL (≈ 1.51 nM)		1780 ng/mL (≈ 2680 nM)	
CCCCCCCCCC[C@H](O)[C@H]1CC[C@H]([C@H](O)CC[C@H](O)[C@@H]2CC[C@@H](CCCCCCC[C@@H](O)CC3=C[C@H](C)OC3=O)O2)O1 [Compound 18, Bullatalicin, reference compound]	1200 ng/mL (≈ 1880 nM)			6.48e-05 ng/mL (≈ 0.000101 nM)	262 ng/mL (≈ 410 nM)	19.2 n moles/Lt/mg protein		
CCCCCCCCCC[C@@H](O)[C@H]1CC[C@H]([C@H](O)CC[C@H](O)[C@@H]2CC[C@@H](CCCCCCC[C@@H]3CC(CC(C)=O)C(=O)O3)O2)O1 (stereo partly drawn) [Compound 24, (2,4-Cis and trans)bullatanocinones, reference compound]	280 ng/mL (≈ 438 nM)	293 ng/mL (≈ 459 nM)	0.643 ng/mL (≈ 1.01 nM)			61.1 n moles/Lt/mg protein		IC50 [1, 8]: 2.34e-05 ng/mL (≈ 3.66e-05 nM)
CCCCCCCCCC[C@@H](O)[C@H]1CC[C@H]([C@H]2CC[C@@H]([C@@H]3CC[C@@H](CCCCCCC[C@@H]4CC(CC(C)=O)C(=O)O4)O3)OCO2)O1 (stereo partly drawn) [Compound 25, 16,19-Formaldehyde acetal derivatives of (2,4-cis and trans)-bullatanocinones]	15 ng/mL (≈ 23 nM)				1280 ng/mL (≈ 1970 nM)	28.3 n moles/Lt/mg protein	0.0677 ng/mL (≈ 0.104 nM)	
CCCCCCCCCC[C@H](O)[C@H]1CC[C@H]([C@H](O)CC[C@H](O)[C@@H]2CC[C@@H](CCCCCCC[C@@H]3CC(CC(C)=O)C(=O)O3)O2)O1 (stereo partly drawn) [Compound 26, (2,4-Cis and trans)-bullatalicinones, reference compound]	470 ng/mL (≈ 736 nM)	1.57 ng/mL (≈ 2.46 nM)	0.0562 ng/mL (≈ 0.088 nM)			23.0 n moles/Lt/mg protein		

Source: patent US5536848A, “Bioactive acetogenins and derivatives” (Purdue Research Foundation, priority 1994, dated 1996)
